Assay results published in patent US20240000741A1, “ALL-TRANS RETINOIC ACID ENHANCES RADIOTHERAPY AND OVERCOMES IMMUNE SUPPRESSION FOR CANCER THERAPY” (The University of Chicago, priority 2022, published 2024).

Key:
LLC cells = assay: Tumor re-challenge of cured mice with LLC cells; format: in vivo, mouse; conditions: mice cured by IR+RA vs naive mice, 1×10^6 LLC cells
Experimental: (§1) 1×10^6 MC38, B16/F1, Renca or CT26 cells were subcutaneously implanted into flanks of mice. Tumors were irradiated using a Phillips IR250 orthovoltage X-ray generator (Phillips, Amsterdam, the Netherlands) operating at 250 kV 15 mA. Subcutaneous local tumors were irradiated by shielding bodies with a cylindrical lead cover with only flank tumors exposed for radiation. ATRA (400 μg/mice/day) was administered by oral gavage for 10 days. For the two-tumor model, 1×10^6 and 0.7×10^6 MC38 cells were subcutaneously implanted into the right and left flank of mice respectively. For the tumor re-challenge assay, both the cured mice and the naive mice were re-challenged with 5×10^6 MC38 or 1×10^6 LLC cells respectively. Tumors were measured along two diameters (length and width) and depth twice weekly and volumes were calculated as length×width×depth/2. For CD8 and CD4 T cell depletion experiments, 200 μg antibodies were injected i.p. on day 0, 2, 5 and 8 after radiation. Anti-CD11b antibody was injected i.p. every two days starting 1 day before radiation. Anti-PD-L1 antibody was administered i.p. on day 0, 3, and 7 after radiation at 200 μg/mouse. Anti-IFN-γ was administered i.p. at 500 μg/mouse every 7 days. Anti-NK1.1 antibody was administered via i.p. at 25 μg/mouse every 3 days for 3 doses. Anti-GM-CSF antibody was given by i.p. injection at 250 μg/mouse every 2 days. […]

MC38 cells = assay: Direct cytotoxic/radiosensitizing effect of RA on cultured tumor cells; format: cell-based, mouse; conditions: RA 0 nM to 2000 nM after IR 0 Gy to 15 Gy, three days
Experimental: To determine whether RA has direct cytotoxic and/or radiosensitizing effects on tumor cells, MC38 cells were cultured with RA (0 nM to 2000 nM) after IR (0 Gy to 15 Gy) for three days. […] Since both IR and RA regulate immune responses, studies were conducted to examine how the combination treatment changes the tumor immune environment. Using a multiplex assay, the level of chemokines and cytokines in tumors three days after treatment was determined. Following IR+RA treatment, increased levels of CCL2, CCL3, CCL4 and CCL5 (by 2-fold to 3-fold compared to levels in any single treatment), which are involved in monocyte recruitment, were observed. GM-CSF, a critical cytokine for DC generation, increased by more than 5-fold in whole tumor homogenates.

[1] = system: chemokines and cytokines in tumors; assay: Multiplex cytokine/chemokine assay of tumor homogenates; format: in vivo, mouse
Experimental: Whole tumors were excised at indicated time point post treatment. Tumors were weighed and homogenized in PBS with the presence of protease inhibitor cocktails at a ratio of 1 ml per gram of tissue. 25 μl of supernatants were subjected to a bead-based cytokine and chemokine assay (a mouse inflammation panel and chemokine panel sold under the tradename LEGENDPLEX™ (BioLegend, San Diego, California, United States of America). The assays were analyzed using a LSRII flow cytometer and software sold under the tradename LEGENDPLEX™ (both from BioLegend, San Diego, California, United States of America). IFN-γ was measured using IFN-γ flex CBA set (BD Biosciences, Franklin Lakes, New Jersey, United States of America). TNF-α concentration was measured using ELISA kit from R&D Systems (MTA00B; Minneapolis, Minnesota, United States of America). For nitrite assay, equal weight of tumors were cut into pieces and cultured in DMEM medium for 2 hours. The production of NO in the supernatants was measured indirectly by measuring the concentration of nitrite by using the Griess reagent nitrite measurement kit (Cell Signaling Technology, Danvers, Massachusetts, United States of America; #13547).
To determine whether RA has direct cytotoxic and/or radiosensitizing effects on tumor cells, MC38 cells were cultured with RA (0 nM to 2000 nM) after IR (0 Gy to 15 Gy) for three days. […] Since both IR and RA regulate immune responses, studies were conducted to examine how the combination treatment changes the tumor immune environment. Using a multiplex assay, the level of chemokines and cytokines in tumors three days after treatment was determined.

[2] = system: non-irradiated MC38 tumors; assay: MC38 two-tumor model, growth of non-irradiated tumors (abscopal effect); format: in vivo, mouse; conditions: RA and IR treatment of primary tumor compared to any single treatment
Experimental: as §1

[3] = system: immune cells in non-irradiated tumors; assay: Flow cytometric analysis of non-irradiated tumors in the two-tumor model; format: in vivo, mouse
Text: Single cell suspensions were obtained as previously described (40). Cells were blocked with anti-Fc receptor (2.4 G2, BioXCell, Lebanon, New Hampshire, United States of America) and stained for live/dead with Zombie UV, followed staining using antibodies against CD45, CD4, CD8, NK1.1, CD11b, CD11c, Ly6C, Ly6G, F4/80, CD44, CD62L.
More CD8^+ T and CD4^+ T cells were also observed in the non-irradiated tumors when primary tumors received IR+RA treatment.

[4] = system: MC38 syngeneic subcutaneous flank tumor; assay: ATRA-sensitized fractionated radiotherapy in MC38 tumor bearing C57BL/6 mice; format: in vivo, mouse; conditions: 3 fractions
Experimental: A MC38 syngeneic subcutaneous flank tumor-bearing mouse model was used for the evaluation of in vivo efficacy of ATRA-sensitized radiotherapy. 2×10^6 MC38 cells were injected into the right flank subcutaneous tissues of C57BL/6 background mice. […] After administration, mice were anaesthetized with 2% (v/v) isoflurane and the tumors were irradiated daily with X-ray at a dose of 2 Gy/fraction (225 kVp, 13 mA, 0.3 mm-Cu filter) for a total of 3 fractions. Oil (equal volume/each) was administrated daily with or without irradiation as controls. […] All the mice were sacrificed when the tumors reached about 2,000 mm^3.

[5] = IR+RA compared to other treatments
[6] = 8 days after IR+RA combination treatment
[7] = ATRA 400 μg/each oral gavage daily plus X-ray 2 Gy/fraction

CC1=C(/C=C/C(C)=C/C=C/C(C)=C/C(=O)O)C(C)(C)CCC1 [RA, all-trans retinoic acid]
growth of LLC after re-challenge (LLC cells): grew at the same rate | tumor cell death in vitro (MC38 cells): no direct effects | IFN-β level in tumors [1, 5]: significantly elevated | IFN-γ level in tumors [1, 5]: significantly elevated | IL-1 level in tumors [1, 5]: significantly elevated | IL-6 level in tumors [1, 5]: significantly elevated | increase of GM-CSF in whole tumor homogenates ([1]; IR+RA, three days after treatment): more than 5 fold | CXCL9 level in tumors ([1]; radiation and RA treatment): elevated | CXCL10 level in tumors ([1]; radiation and RA treatment): elevated | growth of non-irradiated tumors [2]: slower growth rate | PD-L1 expression on DCs in non-irradiated tumors ([3]; 3 days post IR+RA treatment): Increased | PD-L1 expression on tumor cells in non-irradiated tumors ([3]; 3 days post IR+RA treatment): Increased | CD11c+iNOS+ cells in non-irradiated tumor [3, 6]: increased | proportion of CD11b+ cells in non-irradiated tumors [3, 6]: significantly increased proportion | proportion of CD11b+CD11c+Ly6C+ cells in non-irradiated tumors [3, 6]: significantly increased proportion | CD4+ T cells in non-irradiated tumors ([3]; primary tumors received IR+RA): More | CD8+ T cells in non-irradiated tumors ([3]; primary tumors received IR+RA): More | Foxp3+CD4+ T cells in non-irradiated tumors ([3]; primary tumors received IR+RA): marked decrease | proportion of CD4+ IFN-γ+ cells in non-irradiated tumors ([3]; primary tumors received IR+RA): increased | proportion of CD8+ IFN-γ+ cells in non-irradiated tumors ([3]; primary tumors received IR+RA): increased | proportion of CD8+GzmB+ cells in non-irradiated tumors ([3]; primary tumors received IR+RA): increased | MC38 tumor growth [4, 7]: greatly regressed the growth of tumors | mice totally free of tumors [4, 7]: 5 out of 5 | body weight ([4]; ATRA and X-ray 2 Gy/fraction): did not lose body weight | time without tumor regrowth ([4]; ATRA plus X-ray 2 Gy/fraction): ≥ 30 days
